Source: ChEMBL document CHEMBL3885881, “DrugMatrix”

Species: Rattus norvegicus
Assay: DrugMatrix - Regimen: Daily Repeat
Format: toxicity, organism-based, Sprague-Dawley
Design: regimen Daily Repeat, gender Male, age 6-8 weeks
Conditions: in vivo, po, route oral GAVAGE, […]; for HEMOGLOBIN / LYMPHOCYTE / MEAN CORPUSCULAR HEMOGLOBIN CONCENTRATION / MEAN CORPUSCULAR VOLUME / NUCLEATED RED BLOOD CELLS / PLATELET COUNT / ABSOLUTE BASOPHIL / ABSOLUTE EOSINOPHIL / ABSOLUTE LYMPHOCYTE / ABSOLUTE MONOCYTE / ABSOLUTE SEGMENTED NEUTROPHIL / BASOPHIL / EOSINOPHIL / ERYTHROCYTE COUNT / HEMATOCRIT: tissue Blood; for ALANINE AMINOTRANSFERASE / ALBUMIN / ALKALINE PHOSPHATASE / ASPARTATE AMINOTRANSFERASE / BLOOD UREA NITROGEN / CARBON DIOXIDE / CREATINE PHOSPHOKINASE / CREATININE / LACTATE DEHYDROGENASE / TOTAL BILIRUBIN / TOTAL PROTEIN / URIC ACID: tissue Plasma
[1] = 215 mg/kg, 72 h, dose level M2, time 3 day
[2] = 215 mg/kg, 120 h, dose level M2, time 5 day
[3] = 430 mg/kg, 72 h, dose level M3, time 3 day
[4] = 430 mg/kg, 120 h, dose level M3, time 5 day
[5] = 860 mg/kg, 72 h, dose level High, time 3 day
[6] = 860 mg/kg, dose level High, time 7 day

CC(C)OC(=O)C(C)(C)Oc1ccc(C(=O)c2ccc(Cl)cc2)cc1 [FENOFIBRATE]
HEMOGLOBIN [1]: 13.3 G/DL
LYMPHOCYTE [1]: 89.67%
MEAN CORPUSCULAR HEMOGLOBIN CONCENTRATION [1]: 39.2 G/DL
MEAN CORPUSCULAR VOLUME [1]: 61.5 fL
NUCLEATED RED BLOOD CELLS [1]: 0 /100WBC
PLATELET COUNT [1]: 1279.67 x10E3/uL
ALANINE AMINOTRANSFERASE [1]: 84.33 u/L
ALBUMIN [1]: 4.4 G/DL
ALKALINE PHOSPHATASE [1]: 436.33 u/L
ASPARTATE AMINOTRANSFERASE [1]: 108 u/L
BLOOD UREA NITROGEN [1]: 11.33 mg/dL
CARBON DIOXIDE [1]: 28.33 mmol/L
CREATINE PHOSPHOKINASE [1]: 307 u/L
CREATININE [1]: 0.23 mg/dL
LACTATE DEHYDROGENASE [1]: 227 u/L
TOTAL BILIRUBIN [1]: 0.1 mg/dL
TOTAL PROTEIN [1]: 5.3 G/DL
URIC ACID [1]: 1.47 mg/dL
ABSOLUTE BASOPHIL [2]: 0 CELLS/uL
ABSOLUTE EOSINOPHIL [2]: 0 CELLS/uL
ABSOLUTE LYMPHOCYTE [2]: 6815.67 CELLS/uL
ABSOLUTE MONOCYTE [2]: 96.33 CELLS/uL
ABSOLUTE SEGMENTED NEUTROPHIL [2]: 721.33 CELLS/uL
BASOPHIL [2]: 0%
EOSINOPHIL [2]: 0%
ERYTHROCYTE COUNT [2]: 5.68 x10E6/uL
HEMATOCRIT [2]: 34.5%
HEMOGLOBIN [2]: 13.47 G/DL
LYMPHOCYTE [2]: 90%
MEAN CORPUSCULAR HEMOGLOBIN CONCENTRATION [2]: 39.07 G/DL
MEAN CORPUSCULAR VOLUME [2]: 60.77 fL
NUCLEATED RED BLOOD CELLS [2]: 0 /100WBC
PLATELET COUNT [2]: 1144.67 x10E3/uL
ALANINE AMINOTRANSFERASE [2]: 92.67 u/L
ALBUMIN [2]: 4.8 G/DL
ALKALINE PHOSPHATASE [2]: 542 u/L
ASPARTATE AMINOTRANSFERASE [2]: 108.67 u/L
BLOOD UREA NITROGEN [2]: 9 mg/dL
CARBON DIOXIDE [2]: 35.67 mmol/L
CREATINE PHOSPHOKINASE [2]: 436 u/L
CREATININE [2]: 0.23 mg/dL
LACTATE DEHYDROGENASE [2]: 185.67 u/L
TOTAL BILIRUBIN [2]: 0.1 mg/dL
TOTAL PROTEIN [2]: 5.87 G/DL
URIC ACID [2]: 0.93 mg/dL
ABSOLUTE BASOPHIL [3]: 0 CELLS/uL
ABSOLUTE EOSINOPHIL [3]: 35 CELLS/uL
ABSOLUTE LYMPHOCYTE [3]: 8585.33 CELLS/uL
ABSOLUTE MONOCYTE [3]: 165.67 CELLS/uL
ABSOLUTE SEGMENTED NEUTROPHIL [3]: 847.33 CELLS/uL
BASOPHIL [3]: 0%
EOSINOPHIL [3]: 0.33%
ERYTHROCYTE COUNT [3]: 5.9 x10E6/uL
HEMATOCRIT [3]: 37.27%
LYMPHOCYTE [3]: 89.33%
MEAN CORPUSCULAR HEMOGLOBIN CONCENTRATION [3]: 38.8 G/DL
MEAN CORPUSCULAR VOLUME [3]: 63.17 fL
NUCLEATED RED BLOOD CELLS [3]: 0 /100WBC
PLATELET COUNT [3]: 1091.33 x10E3/uL
ALANINE AMINOTRANSFERASE [3]: 125.33 u/L
ALBUMIN [3]: 3.57 G/DL
ALKALINE PHOSPHATASE [3]: 509.67 u/L
ASPARTATE AMINOTRANSFERASE [3]: 123.67 u/L
BLOOD UREA NITROGEN [3]: 12 mg/dL
CARBON DIOXIDE [3]: 25.67 mmol/L
CREATINE PHOSPHOKINASE [3]: 211 u/L
CREATININE [3]: 0.21 mg/dL
LACTATE DEHYDROGENASE [3]: 138.33 u/L
TOTAL BILIRUBIN [3]: 0.23 mg/dL
TOTAL PROTEIN [3]: 4.8 G/DL
URIC ACID [3]: 0.57 mg/dL
ABSOLUTE BASOPHIL [4]: 0 CELLS/uL
ABSOLUTE EOSINOPHIL [4]: 84 CELLS/uL
ABSOLUTE LYMPHOCYTE [4]: 7042 CELLS/uL
ABSOLUTE MONOCYTE [4]: 80.5 CELLS/uL
ABSOLUTE SEGMENTED NEUTROPHIL [4]: 843.5 CELLS/uL
BASOPHIL [4]: 0%
EOSINOPHIL [4]: 1%
ERYTHROCYTE COUNT [4]: 5.34 x10E6/uL
HEMATOCRIT [4]: 33.8%
HEMOGLOBIN [4]: 13.3 G/DL
LYMPHOCYTE [4]: 87.5%
MEAN CORPUSCULAR HEMOGLOBIN CONCENTRATION [4]: 39.35 G/DL
MEAN CORPUSCULAR VOLUME [4]: 63.4 fL
NUCLEATED RED BLOOD CELLS [4]: 0 /100WBC
PLATELET COUNT [4]: 1064.5 x10E3/uL
ALANINE AMINOTRANSFERASE [4]: 87.5 u/L
ALBUMIN [4]: 4.65 G/DL
ALKALINE PHOSPHATASE [4]: 418.5 u/L
ASPARTATE AMINOTRANSFERASE [4]: 104.5 u/L
BLOOD UREA NITROGEN [4]: 13 mg/dL
CARBON DIOXIDE [4]: 27 mmol/L
CREATINE PHOSPHOKINASE [4]: 307 u/L
CREATININE [4]: 0.31 mg/dL
LACTATE DEHYDROGENASE [4]: 104 u/L
TOTAL BILIRUBIN [4]: 0.15 mg/dL
TOTAL PROTEIN [4]: 5.5 G/DL
URIC ACID [4]: 0.6 mg/dL
ABSOLUTE BASOPHIL [5]: 0 CELLS/uL
ABSOLUTE EOSINOPHIL [5]: 44 CELLS/uL
ABSOLUTE LYMPHOCYTE [5]: 10937 CELLS/uL
ABSOLUTE MONOCYTE [5]: 410.5 CELLS/uL
ABSOLUTE SEGMENTED NEUTROPHIL [5]: 2833.5 CELLS/uL
BASOPHIL [5]: 0%
EOSINOPHIL [5]: 0.25%
ERYTHROCYTE COUNT [5]: 6.03 x10E6/uL
HEMATOCRIT [5]: 37.23%
HEMOGLOBIN [5]: 15.3 G/DL
LYMPHOCYTE [5]: 75.75%
MEAN CORPUSCULAR HEMOGLOBIN CONCENTRATION [5]: 41.35 G/DL
MEAN CORPUSCULAR VOLUME [5]: 61.7 fL
NUCLEATED RED BLOOD CELLS [5]: 0 /100WBC
PLATELET COUNT [5]: 961.5 x10E3/uL
ALANINE AMINOTRANSFERASE [5]: 233.5 u/L
ALBUMIN [5]: 4.15 G/DL
ALKALINE PHOSPHATASE [5]: 474.75 u/L
ASPARTATE AMINOTRANSFERASE [5]: 132.75 u/L
BLOOD UREA NITROGEN [5]: 13 mg/dL
CARBON DIOXIDE [5]: 29 mmol/L
CREATINE PHOSPHOKINASE [5]: 233.75 u/L
CREATININE [5]: 0.14 mg/dL
LACTATE DEHYDROGENASE [5]: 160.5 u/L
TOTAL BILIRUBIN [5]: 0.28 mg/dL
TOTAL PROTEIN [5]: 5.55 G/DL
ABSOLUTE BASOPHIL [6]: 0 CELLS/uL
ABSOLUTE EOSINOPHIL [6]: 0 CELLS/uL
ABSOLUTE LYMPHOCYTE [6]: 6863 CELLS/uL
ABSOLUTE MONOCYTE [6]: 370.5 CELLS/uL
ABSOLUTE SEGMENTED NEUTROPHIL [6]: 5116.5 CELLS/uL
BASOPHIL [6]: 0%
EOSINOPHIL [6]: 0%
ERYTHROCYTE COUNT [6]: 6.05 x10E6/uL
HEMATOCRIT [6]: 35.15%
HEMOGLOBIN [6]: 13.8 G/DL
LYMPHOCYTE [6]: 55.5%
MEAN CORPUSCULAR HEMOGLOBIN CONCENTRATION [6]: 39.4 G/DL
MEAN CORPUSCULAR VOLUME [6]: 57.6 fL
NUCLEATED RED BLOOD CELLS [6]: 2 /100WBC
PLATELET COUNT [6]: 1590.5 x10E3/uL
ALANINE AMINOTRANSFERASE [6]: 283.5 u/L
ALBUMIN [6]: 3 G/DL
ALKALINE PHOSPHATASE [6]: 812 u/L
ASPARTATE AMINOTRANSFERASE [6]: 328 u/L
BLOOD UREA NITROGEN [6]: 63 mg/dL
CARBON DIOXIDE [6]: 25 mmol/L
CREATINE PHOSPHOKINASE [6]: 1456.5 u/L
CREATININE [6]: 0.58 mg/dL
LACTATE DEHYDROGENASE [6]: 638 u/L
TOTAL BILIRUBIN [6]: 2.9 mg/dL
TOTAL PROTEIN [6]: 5.7 G/DL
